The subject of the test is HepG2. The experiment in a line: Hepatoprotective activity against nitrofurantoin-induced cytotoxicity in human HepG2 cells after 2 hrs by MTT assay. Conditions: HepG2, 2 h. In kind it is functional, cell-based. In general terms: Tetrazolium dyes change colour on reduction, which living cells bring about.

Each structure is given as a SMILES string. pEC50: −log10 of the molar value.

Broadly, the pEC50 is the negative decadic logarithm of the EC50, by convention in mol/L.

Compound `COc1cc(C2Oc3cc([C@H]4Oc5cc(O)cc(O)c5C(=O)[C@@H]4O)ccc3OC2CO)ccc1O` (some centres undefined) [SILIBININ] showed a pEC50 of 4.12.
In the case of `CC(C)=CC(=O)C[C@@H](C)[C@H]1CC[C@@]2(C)[C@@H]3CC[C@H]4[C@](C)(C(=O)O)[C@@H](O)C[C@H](O)[C@@]45C[C@@]35CC[C@]12C` [GARDENOLIC ACID B] it was 4.18.
The figure for `CC(C)=CC(=O)C[C@@H](C)[C@H]1CC[C@@]2(C)[C@@H]3CC[C@H]4C(C)(C)C(=O)C=C[C@@]45C[C@@]35CC[C@]12C` is 3.96; for `CO[C@H]1O[C@]2(C=C(C)C(=O)O2)C[C@@H]1[C@H]1CC[C@@]2(C)[C@@H]3CC[C@H]4C(C)(C)C(=O)C=C[C@@]45C[C@@]35CC[C@]12C` it is 3.91.

These data come from ChEMBL document CHEMBL1152971, “Cycloartane triterpenoids from Kleinhovia hospita” (J Nat Prod, 2009).
